# “And” between values parts separate entries of the source, which are not always exact repeats. Identical values can stand only once.
# Legend:
# [1] = test system: Oatp1a/1b; assay: Baseline plasma biomarker levels in Oatp1a/1b(−/−) cluster-knockout vs wild-type mice; assay type: in vivo, mouse; conditions: n = 6–10 per group
# Procedure: (§1) Plasma concentrations of levels of CDCA-24G and glycochenodeoxycholate-3-sulfate (GCDCA-S) were determined using LC-MS/MS using a Vanquish UHPLC coupled with a Quantiva triple quadrupole mass spectrometer (Thermo Fisher Scientific, Waltham, MA, USA). An Accucore aQ column (50 × 2.1 mm, dp = 2.6 μm; Thermo Fisher Scientific) was protected by a C18 AQUASIL guard cartridge (2.1 mm × 10 mm, dp = 3 μm; Thermo Fisher Scientific). The injection volume of sample was 5.0 μL. The temperature of the autosampler rack was 4 °C, and the temperature of the column was maintained at 20 °C. The mobile phase was composed of solvent A (2 mmol ammonium acetate in water) and solvent B (100% methanol), and the total run time was 4.6 min. The gradient conditions were as follows: 0–0.5 min, 45% B; 0.5–2.0 min, 45 to 90%, 2.0–4.0 min, 90% B; 4.0–4.6 min, 45% B, delivered at a flow rate of 0.4 mL/min. The MS assay setting with the positive voltage applied to the ESI capillary was set at 3791 V, and the capillary temperatures was 335 °C with a vaporizer temperature of 350 °C. Argon was used as the collision gas at a pressure of 1.5 mTorr. Precursor molecular ions, and product ions were recorded for the confirmation and detection of GCDCA-S (528.4 > 448.3) and CDCA-24G (567.4 > 391.1), using [^2H5]-GCDCA-S (535.5 > 453.3) and [^2H5]-CDCA-24G (572.5 > 396.1) as respective internal standards. The lower limit of quantitation (LLOQ) for both analytes was determined to be 0.5 ng/mL. […]
# Plasma concentrations of coproporphyrin I (CP-I) and III (CP-III) were determined similarly by LC-MS/MS. […] Precursor molecular ions and product ions were recorded for confirmation and detection of CP-I (655.4 > 596.4) and CP-III (655.4 > 596.3), using [^2H4]-CP-III (659.4 > 600.3) as the internal standard for both analytes. The LLOQ for both analytes were determined to be 1 ng/mL, and the within-run and between-run precisions as well as the accuracy were always within acceptable limits.
# [2] = molecular target: T1, Oatp1b2 (Mus musculus, UniProt Q9JJL3); assay: Uptake in HEK293 cells overexpressing Oatp1b2; assay type: cell-based; parameters: from tissue; hepatic transporter in vivo; conditions: HEK293 cells overexpressing Oatp1b2, 5 min uptake, vs empty vector
# T1 sequence (Q9JJL3 1-689): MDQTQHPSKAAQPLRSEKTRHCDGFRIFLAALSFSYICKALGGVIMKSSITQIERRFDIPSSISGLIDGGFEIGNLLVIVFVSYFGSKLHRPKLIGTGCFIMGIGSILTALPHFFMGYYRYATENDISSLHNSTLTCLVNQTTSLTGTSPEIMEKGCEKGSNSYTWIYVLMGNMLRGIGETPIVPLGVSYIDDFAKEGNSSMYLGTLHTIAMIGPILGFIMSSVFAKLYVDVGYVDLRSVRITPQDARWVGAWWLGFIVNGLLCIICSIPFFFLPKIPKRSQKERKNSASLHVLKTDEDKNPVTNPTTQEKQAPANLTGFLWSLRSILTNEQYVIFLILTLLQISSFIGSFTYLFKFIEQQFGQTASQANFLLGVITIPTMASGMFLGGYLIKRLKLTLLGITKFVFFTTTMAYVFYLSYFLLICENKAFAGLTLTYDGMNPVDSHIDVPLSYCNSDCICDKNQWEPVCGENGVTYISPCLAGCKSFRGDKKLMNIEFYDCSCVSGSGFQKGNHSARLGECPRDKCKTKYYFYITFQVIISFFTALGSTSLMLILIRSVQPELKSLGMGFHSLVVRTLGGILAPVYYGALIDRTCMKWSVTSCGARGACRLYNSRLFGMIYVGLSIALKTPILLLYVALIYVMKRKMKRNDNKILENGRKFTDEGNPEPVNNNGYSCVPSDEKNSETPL
# Procedure: The generation of human embryonic kidney (HEK293) cells (ATCC) engineered to overexpress OATP1B1, Oatp1b2, or empty vector, the cell culture conditions, and general details of uptake studies have been reported in detail elsewhere. Briefly, cells were grown to 90% confluence on poly-lysine coated multi-well plates. […] The pre-treatment medium was rinsed off with warm 1× PBS followed by the addition of the test compounds for an incubation period of 5 min. After incubation, transport was halted by aspirating the medium and rinsing the cells three times with ice-cold 1× PBS. After lysing cells with 0.1 N HCl, and subsequent adding methanol, 20 μL aliquots were mixed with 60 μL of acetonitrile containing relevant internal standards. After vortex mixing, the mixtures were centrifuged, and the supernatants were used for quantitative analysis by LC-MS/MS. Drug uptake results were normalized to total protein content and then to data obtained in cells carrying an empty vector plasmid, which was set to 100%.
# [3] = test system: human OATP1B3; assay: Baseline plasma CDCA-24G in Oatp1a/1b(−/−) mice with transgenic hepatic expression of OATP1B3 (OATP1B3(tg)); assay type: in vivo; conditions: range stated jointly for OATP1B1(tg) and OATP1B3(tg)
# Procedure: as §1, with “The MS assay setting with the positive voltage applied to the ESI capillary was set at 3791 V, and the capillary temperatures was 335 °C with a vaporizer temperature of 350 °C. Argon was used as the collision gas at a pressure of 1.5 mTorr.” left out
compound,measurement,setting,value
"C[C@H](CCC(=O)O[C@@H]1O[C@H](C(=O)O)[C@@H](O)[C@H](O)[C@H]1O)[C@H]1CC[C@H]2[C@@H]3[C@H](O)C[C@@H]4C[C@H](O)CC[C@]4(C)[C@H]3CC[C@]12C [CDCA-24G, chenodeoxycholate-24-glucuronide]",Plasma concentration of CDCA-24G in Oatp1a/1b(−/−) mice relative to wild type,[1],83 fold and > 80 fold
same,Transport by murine OATP1B-type transporter,[2],efficiently transported
same,"Baseline CDCA-24G level, fold lower than in Oatp1a/1b(−/−) mice",[3],5- to 7 fold
